The record followed here is US10640507B2, “PBD antibacterial agents” (KING'S COLLEGE LONDON, priority 2015, dated 2020).

What all share (type): cell-based
Assay [1] concerns E. faecium VRE NCTC 12204. In words: General MIC protocol, Gram positive panel. The method, then:
(§1) General Minimum Inhibitory Concentration (MIC) Protocol
(§2) 1. Grow up cultures of bacterial strains to be tested overnight.
(§3) 2. Dilute down overnight cultures to concentration of 1×10^6 bacteria/ml (OD0.01) in Tryptic soy broth (TSB).
(§4) 3. Add 100 μl of TSB media to column 2-column 12 in 96 well plate (keeping column 1 clear).
(§5) 4. Make up compound to a concentration of 64 μg/ml in water (or alternatively to twice the chosen maximum concentration to be tested).
(§6) 5. Add 100 μl of antibiotic solution to the 1st and 2nd columns.
(§7) 6. Using a multichannel pipette take 100 μl from the 2nd column wells and pipette into 3rd column wells and repeat down the 96 well plate (remembering to include controls i.e. uninfected media and media with no antibiotic).
(§8) 7. To each well (except uninfected control row H) add 100 μl of bacterially infected media at a concentration of 1×10^6/ml.
(§9) 8. This dilutes down the concentration of the antibiotic by half (top dose is therefore 32 μg/ml in column 1) and also gives you a starting bacterial concentration of 5×10^5/ml.
(§10) 9. Wrap plate with parafilm to prevent evaporation.
(§11) 10. Leave at desired temperature (37° C. unless specified elsewhere) for 20 hours.
(§12) 11. Next day check plates for growth and measure optical density (i.e. absorbance) at a wavelength of 600 nm (OD600).
(§13) An example of such a plate is shown in FIG. 1 where column A represents wells that receive the top dose 100 μl; column B represents wells that receive the top dose 100 μl+100 μl TSB; and column C represents wells that receive 100 μl TSB. Row H which is marked by a box labelled D represents a blank where the cells receive no bacteria.

A further assay deals with EMRSA-16. In words: General MIC protocol, Gram positive panel. The method, then: as §1, §2, §3, §4, §5, §6, §7, §8, §9, §10, §11, §12, §13
The next assay relates to E. faecalis VSE NCTC 775. In words: General MIC protocol, Gram positive panel. Particulars: Enterococcus faecalis, NCTC775; VSE 775. The method, then: as §1, §2, §3, §4, §5, §6, §7, §8, §9, §10, §11, §12, §13
The test system of assay [2] is methicillin sensitive S. aureus ATTC 9144 (NCTC 6571). In words: General MIC protocol, Gram positive panel. Particulars: Staphylococcus aureus, MSSA / NCTC 6571; MSSA 9144. On the procedure:
as §1, §2, §3, §4, §5, §6, §7, §8, §9, §10, §11, §12, §13

A further assay deals with EMRSA-15. In words: General MIC protocol, Gram positive panel. On the procedure: as §1, §2, §3, §4, §5, §6, §7, §8, §9, §10, §11, §12, §13
Assay [3] relates to E. faecalis VRE NCTC 12201. In words: General MIC protocol, Gram positive panel. On the procedure:
as §1, §2, §3, §4, §5, §6, §7, §8, §9, §10, §11, §12, §13

In the next assay the test system is A. baumannii AYE. In words: General MIC protocol, Gram negative. Particulars: Acinetobacter baumannii. On the procedure:
as §1, §2, §3, §4, §5, §6, §7, §8, §9, §10, §11, §12, §13

A further assay concerns P. aeruginosa PA01. In words: General MIC protocol, Gram negative. Particulars: Pseudomonas aeruginosa, PA01, PA01. On the procedure: as §1, §2, §3, §4, §5, §6, §7, §8, §9, §10, §11, §12, §13
The test system of a further assay is K. pneumonia NCTC 13368. In words: General MIC protocol, Gram negative. Particulars: Klebsiella pneumoniae, NCTC13368. On the procedure: as §1, §2, §3, §4, §5, §6, §7, §8, §9, §10, §11, §12, §13
In a further assay the test system is P. aeruginosa NCTC 13437. In words: General MIC protocol, Gram negative. Particulars: Pseudomonas aeruginosa, NCTC13437. On the procedure:
as §1, §2, §3, §4, §5, §6, §7, §8, §9, §10, §11, §12, §13

Another assay deals with A. baumannii NCTC 17978. In words: General MIC protocol, Gram negative. Particulars: Acinetobacter baumannii, NCTC17978. On the procedure:
as §1, §2, §3, §4, §5, §6, §7, §8, §9, §10, §11, §12, §13

For the next assay, the system named is K. pneumonia M6. In words: General MIC protocol, Gram negative. Particulars: Klebsiella pneumoniae; KP-M6. On the procedure: as §1, §2, §3, §4, §5, §6, §7, §8, §9, §10, §11, §12, §13
Assay [4] relates to HeLa (Cervical cancer cell line). In words: MTT cytotoxicity assay. Particulars: Homo sapiens, MTT, 24 h continuous exposure, read-out: IC50 HeLa (Cervical cancer cell line). The method, then:
(§14) Two immortalised human cell lines, HeLa and WI38 were used for cytotoxicity screening of the compounds. HeLa is a human cervical cancer cell line and WI38 is a normal healthy cell line. The cell lines were obtained from the American Type Culture Collection. The cell-lines were maintained in monolayer culture in 75 cm2 flasks (TPP, Switzerland) under a humidified 5% CO2 atmosphere at 37° C. The HeLa cell line was maintained in Dulbecco's Modified Eagles Media (DMEM; Invitrogen) supplemented with foetal bovine serum (10% v/v; Invitrogen), L-glutamine (2 mM; Invitrogen), non-essential amino acids (1×; Invitrogen) and Penicillin-Streptomycin (1% v/v, Invitrogen). For WI38, Eagle's Minimum Essential Medium, and Penicillin-Streptomycin (1% v/v, Invitrogen) and foetal bovine serum (10%, nvitrogen) was used. For passaging, cells were washed with phosphate buffered saline [PBS] (GIBCO 14040, Invitrogen, UK), incubated with trypsine (GIBCO 25300, Invitrogen, UK), and re-seeded into fresh medium. For seeding, cells were counted using a Neubauer haemocytometer (Assistant, Germany) by microscopy (Nikon, USA) on a non-adherent suspension of cells that were washed in PBS, trypsinised, centrifuged at 8° C. at 8000 rpm for 5 min and re-suspended in fresh medium.
(§15) The cells were grown in normal cell culture conditions at 37° C. under a 5% CO2 humidified atmosphere using appropriate medium. The cell count was adjusted to 10^5 cells/ml/ and 20,000 cells were added per well. The cells were incubated for 24 hours and 1 μl of the appropriate inhibitor concentrations were to the wells in triplicates. After 24 h of continuous exposure to each compound, the cytotoxicity was determined using the MIT (3-(4,5-Dimethylthiazol-2-yl)-2,5-diphenyltetrazolium bromide) (Lancaster Synthesis Ltd, UK) colorimetric assay. Absorbance was quantified by spectrophotometry at λ=570 nm (Envision Plate Reader, PerkinElmer, USA). IC50 values were calculated by a dose-response analysis using the Prism Graphpad Prism® software. The cytotoxicity results are shown below in Table 12.

The next assay relates to WI38 (Healthy cell line). In words: MTT cytotoxicity assay. Particulars: Homo sapiens, WI-38; MTT; 24 h continuous exposure; highest concentration tested 20 μM; read-out: IC50 WI38 (Healthy cell line). On the procedure: as §14, §15

Values after ≈ are worked out from the molar mass of the structure shown.

`COc1cc2c(cc1OCCCC(=O)Nc1cc(C(=O)Nc3ccc4oc(C(=O)N5CCCCC5)cc4c3)n(C)c1)N=C[C@@H]1CCCN1C2=O` [PP-B26, (S)-4-(4-((7-methoxy-5-oxo-2,3,5,11a-tetrahydro-1H-benzo-[e]pyrrolo[1,2-a][1,4]diazepin-8-yl)oxy)butanamido)-1-methyl-N-(2-(piperidine-1-carbonyl)benzofuran-5-yl)-1H-pyrrole-2-carboxamide]: the MIC (in general, the least concentration at which growth counts as inhibited) was less than 0.125 µg/mL in [1]; 0.5 µg/mL (≈ 0.734 µM) against EMRSA-16; 0.25 µg/mL (≈ 0.367 µM) against E. faecalis VSE NCTC 775; less than 0.125 µg/mL in [2]; 0.25 µg/mL (≈ 0.367 µM) against EMRSA-15; less than 0.125 µg/mL in [3]. Moreover, the MIC was determined as 2 µg/mL (≈ 2.94 µM) with A. baumannii AYE; 128 µg/mL (≈ 188 µM) against P. aeruginosa PA01; 64 µg/mL (≈ 94 µM) in the assay with K. pneumonia NCTC 13368; 32 µg/mL (≈ 47 µM) against P. aeruginosa NCTC 13437; 2 µg/mL (≈ 2.94 µM) in the assay on A. baumannii NCTC 17978; 8 µg/mL (≈ 11.8 µM) against K. pneumonia M6. Further, the concentration for half-maximal inhibition (IC50) (in assay [4]; in the assay with WI38 (Healthy cell line)) was greater than 20 µM each time.

For the molecule `CCN(CC)C(=O)c1cc2cc(NC(=O)c3cc(NC(=O)CCCOc4cc5c(cc4OC)C(=O)N4CCC[C@H]4C=N5)cn3C)ccc2o1` [PP-B27, (S)—N-(2-(diethylcarbamoyl)benzofuran-5-yl)-4-(4-((7-methoxy-5-oxo-2,3,5,11a-tetrahydro-1H-benzo[e]pyrrolo[1,2-a][1,4]-diazepin-8-yl)oxy)butanamido)-1-methyl-1H-pyrrole-2-carboxamide], the MIC in assay [1] is less than 0.125 µg/mL; against EMRSA-16 it was 0.5 µg/mL (≈ 0.748 µM); against E. faecalis VSE NCTC 775, 0.25 µg/mL (≈ 0.374 µM); in assay [2], less than 0.125 µg/mL; with EMRSA-15, 0.25 µg/mL (≈ 0.374 µM); in [3], less than 0.125 µg/mL. The minimal inhibitory concentration (MIC) against A. baumannii AYE stood at 4 µg/mL (≈ 5.98 µM); against P. aeruginosa PA01, 128 µg/mL (≈ 191 µM); with K. pneumonia NCTC 13368, 64 µg/mL (≈ 95.7 µM); in the assay on P. aeruginosa NCTC 13437, 32 µg/mL (≈ 47.9 µM); in the assay with A. baumannii NCTC 17978 it was 4 µg/mL (≈ 5.98 µM); in the assay on K. pneumonia M6, 8 µg/mL (≈ 12 µM). Further, the 50% inhibitory concentration (IC50) (in [4]; in the assay on WI38 (Healthy cell line)) was greater than 20 µM throughout.
